{
  "source": "patent US6358973B1",
  "about": "“Benzazine derivatives as phosphodiesterase 4 inhibitors” (Zambon Group S.p.A., priority 1998, dated 2002)",
  "data": [
    {"tested_on": "not given", "experiment": "not given", "details": "not given", "values": [
      {"smiles": "COc1ccc2c(c1)C(CCCCCCc1ccccc1)CN=C2Cc1c(Cl)cncc1Cl.Cl.Cl", "note": "(stereo not drawn)", "melting point": "135 to 137 °C (dec.)"},
      {"smiles": "COc1ccc2c(c1)c(-c1ccccc1)cc(=O)n2Cc1c(Cl)cncc1Cl", "note": "[Compound 23, 1-(3,5-Dichloropyridin-4-ylmethyl)-6-methoxy-4-phenyl-1H-quinolin-2-one]", "melting point": "191 to 192 °C"},
      {"smiles": "COc1cccc2c1C(Cc1c(Cl)cncc1Cl)=NCC2CCCCCCc1ccccc1.Cl.Cl", "note": "(stereo not drawn)", "melting point": "117 to 119 °C (dec.)"},
      {"smiles": "COc1ccc2c(c1)C(CC1CCCC1)CN=C2Cc1c(Cl)cncc1Cl.Cl.Cl", "note": "(stereo not drawn)", "melting point": "162 to 164 °C (dec.)"},
      {"smiles": "COc1cccc2c1C(Cc1c(Cl)cncc1Cl)=NCC2CC1CCCC1.Cl.Cl", "note": "(stereo not drawn)", "melting point": "189 to 190 °C (dec.)"}
    ]},
    {"molecular_target": "PDE 4 enzyme", "experiment": "PDE 4 enzyme inhibition (SPA, Amersham kit)", "type": "biochemical", "details": "PDE 4 purified from human PMNs; cAMP 1 μM; 40 minutes at 30° C.; 9 concentrations", "text": "Evaluation of the PDE 4 Enzyme Inhibition a) Purification of Human Polymorphonucleate Leukocytes\nThe polymorphonucleate leukocytes (PMNs) were isolated from peripheral blood of healthy volunteers according to what described by Boyum A., Scand. J. Immunol., 1976, 5th suppl., 9). Shortly, the isolation of the PMNs was effected by Ficoll-Paque gradient centrifugation followed by sedimentation on dextrane and the erythrocyte contamination was eliminated by hypotonic lysis. […]\nb) PDE 4 Enzyme Purification\nThe human PMNs were re-suspended in TRIS/HCl buffer (10 mM pH 7.8) containing MgCl2 (5 mM), EGTA (4 mM), mercaptoethanol (5 mM), TRITON-X100 (1%), pepstatin A (1 μM), PMSF (100 μM) and leupeptin (1 μM), and homogenised by Polytron. […]\nThe enzyme activity was evaluated with an Amersham kit based on the SPA (Scintillation Proximity Assay) technique. […] The radioactivity due to the particles was measured in a β-emitting counter. The results are expressed as percent activity versus the control present in each experiment. The IC50 values were calculated over 9 concentrations equidistant in logarithmic scale using a 4-parameters logistic function by software.", "units": {"IC50": "nM"}, "values": [
      {"smiles": "COc1ccc2c(c1CC1CCCC1)CCN=C2Cc1c(Cl)cncc1Cl", "note": "[Compound 20, 5-Cyclopentylmethyl-1-(3,5-dichloro-pyridin-4-ylmethyl)-6-methoxy-3,4-dihydro-isoquinoline]", "IC50": "35.9 ± 4.7"}
    ]}
  ]
}
